Laboratory results published in DBAASP.
In brackets after ≈: the same amount, converted by molar mass. Several values for one entry are separate records, joined by “and”; a condition that tells them apart may be missing. Equal entries are not always repeated.

Assays:
Assay in all cases: ≥ marks a high value that may be exact or a test limit, other limits are often not marked, values filed in µg/mL are converted to µM
[1] = system: Salmonella enterica subsp. enterica serovar Typhimurium ATCC 700931
[2] = system: Staphylococcus epidermidis ATCC 14990
[3] = system: Staphylococcus aureus ATCC 27660
[4] = system: Pseudomonas aeruginosa ATCC 10145
Escherichia coli D31 = system: Escherichia coli D31
[5] = system: Clavibacter michiganensis subsp. michiganensis MAFF 301254
[6] = system: Pyricularia oryzae MAFF 101511
[7] = system: Xanthomonas oryzae pv. oryzae MAFF 311018
Vibrio cholerae N16961 = system: Vibrio cholerae N16961
Klebsiella pneumoniae = system: Klebsiella pneumoniae
Staphylococcus aureus = system: Staphylococcus aureus
[8] = system: Bacillus subtilis KCTC 3068
[9] = system: Salmonella typhimurium KCTC 1926
[10] = system: Staphylococcus epidermidis KCTC 1917
[11] = system: Escherichia coli ATCC 25922
[12] = system: Staphylococcus aureus KCTC 1621
[13] = system: Pseudomonas aeruginosa KCTC 1637
[14] = system: Staphylococcus epidermidis ATCC 12228
[15] = system: Escherichia coli KCTC 1682
[16] = system: Proteus vulgaris KCTC 2433
[17] = system: Enterococcus faecalis KCTC 2011
[18] = system: Staphylococcus aureus ATCC 25923
[19] = system: Enterococcus faecalis PCM 2673
[20] = system: Pseudomonas aeruginosa ATCC 9027
[21] = system: Candida albicans ATCC 10231
[22] = system: Escherichia coli ATCC 35218
[23] = system: Staphylococcus aureus ATCC 33591
[24] = system: Pseudomonas aeruginosa ATCC 27853
[25] = system: Escherichia coli ATCC 11229
[26] = system: Staphylococcus aureus ATCC 29213
[27] = system: Salmonella enterica serovar Typhimurium
[28] = system: Klebsiella pneumoniae ATCC 13866
[29] = system: Escherichia coli DH5alpha
[30] = system: Pseudomonas aeruginosa NBRC 13275
[31] = system: Staphylococcus aureus NBRC 13276
[32] = system: Aeromonas hydrophila ATCC 35654
[33] = system: Micrococcus luteus ATCC 49732
[34] = system: Micrococcus luteus DSM 1790
Escherichia coli BL21AI = system: Escherichia coli BL21AI

CC[C@H](C)[C@H](NC(=O)[C@H](C)N)C(=O)N[C@@H](Cc1c[nH]c2ccccc12)C(=O)N[C@@H](CCCCN)C(=O)N[C@@H](CCCCN)C(=O)N[C@H](C(=O)N[C@H](C(=O)N[C@@H](CCCCN)C(=O)N[C@@H](CCCCN)C(=O)N[C@H](C(=O)N[C@H](C(=O)N[C@@H](CCCCN)C(=O)N[C@@H](CO)C(=O)N[C@@H](C)C(=O)N[C@@H](CCCCN)C(=O)N[C@@H](CCCCN)C(=O)N[C@H](C(=O)NCC(=O)O)[C@@H](C)CC)[C@@H](C)CC)[C@@H](C)CC)[C@@H](C)CC)[C@@H](C)CC [AIWKKIIKKIIKSAKKIG]
MIC [1]: 1.88 µM (≈ 3.89 µg/mL) | MIC [2]: 0.94 µM (≈ 1.94 µg/mL) | MIC [3]: 1.88 µM (≈ 3.89 µg/mL) | MIC [4]: 1.88 µM (≈ 3.89 µg/mL) | MIC (Escherichia coli D31): 0.94 µM (≈ 1.94 µg/mL)

CC[C@H](C)[C@H](NC(=O)[C@@H](N)Cc1ccccc1)C(=O)N[C@@H](Cc1ccccc1)C(=O)N[C@@H](CC(C)C)C(=O)N1CCC[C@H]1C(=O)N[C@H](C(=O)N[C@@H](Cc1ccccc1)C(=O)N[C@@H](CCCN=C(N)N)C(=O)N[C@@H](CCCN=C(N)N)C(=O)N1CCC[C@H]1C(=O)N[C@H](C(=O)N[C@@H](CO)C(N)=O)C(C)C)[C@@H](C)CC [FIFLPIFRRPVS]
MIC [5]: 10.7 µM (≈ 16 µg/mL) | MIC [6]: ≥ 85.8 µM | MIC [7]: ≥ 85.8 µM

CC[C@H](C)[C@@H]1NC(=O)CNC(=O)[C@@H](NC(=O)[C@H](CC(C)C)NC(=O)[C@@H](NC(=O)[C@H](CO)NC(=O)[C@@H]2CCCN2C(=O)[C@H](CC(C)C)NC(=O)[C@@H](NC(=O)[C@H](CCCCN)NC(=O)[C@H](C)NC(=O)CNC(=O)[C@@H](NC(=O)[C@H](CCCCN)NC(=O)[C@H](CC(C)C)NC(=O)[C@H](CC(C)C)NC(=O)[C@H](C)NC(=O)CNC(=O)[C@H](CC(C)C)NC(=O)[C@@H](N)Cc2ccccc2)[C@@H](C)CC)C(C)C)C(C)C)CSSC[C@@H](C(N)=O)NC(=O)[C@H](CCCCN)NC(=O)[C@H](CCCCN)NC(=O)[C@H](Cc2ccccc2)NC1=O [FLGALLKIGAKVLPSVLCGIFKKC]
MIC (Vibrio cholerae N16961): 4.5 µM (≈ 11.3 µg/mL) | MIC (Klebsiella pneumoniae): 15 µM (≈ 37.7 µg/mL) | MIC (Staphylococcus aureus): 4 µM (≈ 10.1 µg/mL)

CC[C@H](C)[C@H](NC(=O)CN)C(=O)NCC(=O)N[C@@H](CCCCN)C(=O)N[C@@H](Cc1c[nH]c2ccccc12)C(=O)N[C@@H](CC(C)C)C(=O)N[C@@H](Cc1cnc[nH]1)C(=O)N[C@@H](CO)C(=O)N[C@@H](C)C(=O)N[C@@H](CCCCN)C(=O)N[C@@H](CCCCN)C(=O)N[C@@H](Cc1ccccc1)C(=O)NCC(=O)N[C@@H](CCCCN)C(=O)N[C@@H](C)C(=O)N[C@@H](Cc1ccccc1)C(=O)N[C@H](C(=O)NCC(=O)N[C@@H](CCC(=O)O)C(=O)N[C@H](C(=O)N[C@@H](CCSC)C(=O)N[C@@H](CC(N)=O)C(=O)N[C@@H](CO)C(=O)O)[C@@H](C)CC)C(C)C [GIGKWLHSAKKFGKAFVGEIMNS]
MIC [8]: 8 µM (≈ 20 µg/mL) | MIC [9]: 22.6 µM (≈ 56.7 µg/mL) | MIC [10]: 16 µM (≈ 40.1 µg/mL) | MIC [11]: 8 µM and 20 µM | MIC [12]: 22.6 µM (≈ 56.7 µg/mL) | MIC [13]: ≥ 32 µM | MIC [14]: 20 µM and 40 µM | MIC [15]: ≥ 32 µM | MIC [16]: ≥ 45.3 µM | MIC [17]: 16 µM (≈ 40.1 µg/mL)

CC[C@H](C)[C@H](NC(=O)[C@H](CCCCN)NC(=O)[C@H](CCCCN)NC(=O)[C@@H](NC(=O)[C@@H](NC(=O)[C@H](CC(=O)O)NC(=O)[C@H](Cc1ccccc1)NC(=O)[C@H](CC(C)C)NC(=O)CN)[C@@H](C)CC)[C@@H](C)CC)C(=O)N[C@@H](C)C(=O)N[C@@H](CCC(=O)O)C(=O)N[C@@H](C)C(=O)N[C@@H](Cc1ccccc1)C(N)=O [GLFDIIKKIAEAF]
MIC [11]: 43.7 µM (≈ 64 µg/mL) | MIC [18]: 21.8 µM (≈ 32 µg/mL) | MIC [19]: ≥ 43.7 µM | MIC [20]: > 350 µM | MIC [21]: 21.8 µM (≈ 32 µg/mL)

CC[C@H](C)[C@H](NC(=O)[C@H](C)NC(=O)[C@H](CCCN=C(N)N)NC(=O)[C@H](CC(C)C)NC(=O)[C@@H](NC(=O)[C@H](CO)NC(=O)CN)C(C)C)C(=O)N[C@@H](CCSC)C(=O)N[C@@H](CCCN=C(N)N)C(=O)N[C@@H](CCSC)C(=O)N[C@@H](Cc1ccccc1)C(=O)N[C@@H](C)C(=O)N[C@@H](CCCCN)C(=O)N[C@@H](CC(C)C)C(=O)N[C@@H](CCSC)C(=O)NCC(=O)O [GSVLRAIMRMFAKLMG]
MIC [22]: ≥ 35.9 µM | MIC [18]: 35.9 µM (≈ 64 µg/mL) | MIC [23]: 4.49 µM (≈ 8 µg/mL) | MIC [14]: 4.49 µM (≈ 8 µg/mL) | MIC [24]: 18 µM (≈ 32 µg/mL) | MIC [25]: ≥ 35.9 µM | MIC [26]: 35.9 µM (≈ 64 µg/mL) | MIC [27]: ≥ 35.9 µM | MIC [28]: ≥ 35.9 µM

CC[C@H](C)[C@H](NC(=O)[C@H](CCC(=O)O)NC(=O)CNC(=O)[C@@H](NC(=O)[C@H](Cc1ccccc1)NC(=O)[C@H](C)NC(=O)[C@H](CCCCN)NC(=O)CNC(=O)[C@H](Cc1ccccc1)NC(=O)[C@H](CCCCN)NC(=O)[C@H](CCCCN)NC(=O)[C@H](C)NC(=O)[C@H](CO)NC(=O)[C@H](Cc1cnc[nH]1)NC(=O)[C@H](CC(C)C)NC(=O)[C@H](Cc1ccccc1)NC(=O)[C@H](CCCCN)NC(C)=O)C(C)C)C(=O)N[C@@H](CCSC)C(=O)N[C@@H](CC(N)=O)C(=O)N[C@@H](CO)C(N)=O [KFLHSAKKFGKAFVGEIMNS]
MIC [29]: ≥ 200 µM | MIC [30]: ≥ 200 µM | MIC [31]: ≥ 400 µM

CC[C@H](C)[C@H](NC(=O)[C@H](CC(C)C)NC(=O)[C@H](CCC(N)=O)NC(=O)[C@@H](NC(=O)[C@H](CCCCN)NC(=O)[C@@H](NC(=O)[C@H](CS)NC(=O)[C@H](CCCCN)NC(=O)[C@@H](N)CCCN=C(N)N)C(C)C)C(C)C)C(=O)N[C@@H](CCCCN)C(=O)N[C@@H](CC(N)=O)C(=O)NCC(=O)N[C@@H](CCCN=C(N)N)C(=O)N[C@@H](CCC(N)=O)C(=O)N[C@H](C(=O)N[C@H](C(=O)N[C@@H](C)C(=O)N[C@@H](Cc1ccccc1)C(N)=O)[C@@H](C)O)C(C)C [RKCVKVQLIKNGRQVTAF]
MIC [32]: 20 µM (≈ 41.8 µg/mL) | MIC [33]: 7.2 µM (≈ 15 µg/mL) | MIC [11]: 12 µM (≈ 25.1 µg/mL) | MIC [18]: > 20 µM

CC[C@H](C)[C@H](NC(=O)[C@H](CCCN=C(N)N)NC(=O)[C@H](CCCN=C(N)N)NC(=O)[C@@H]1CCCN1C(=O)[C@@H]1CCCN1C(=O)[C@H](Cc1cnc[nH]1)NC(=O)[C@@H]1CCCN1C(=O)[C@H](CCCN=C(N)N)NC(=O)[C@@H]1CCCN1C(=O)[C@H](CC(C)C)NC(=O)[C@H](Cc1ccc(O)cc1)NC(=O)[C@@H]1CCCN1C(=O)[C@@H]1CCCN1C(=O)[C@H](CCCCN)NC(=O)[C@H](CC(=O)O)NC(=O)[C@@H](N)C(C)C)C(=O)N[C@@H](Cc1ccc(O)cc1)C(=O)N[C@@H](CC(N)=O)C(=O)O [VDKPPYLPRPHPPRRIYN]
MIC [34]: 14.1 µM (≈ 31.3 µg/mL) | MIC (Escherichia coli BL21AI): 28.2 µM (≈ 62.5 µg/mL)
